molecular target: T1, Recombinant human EP300 containing the bromodomain (EP300-BD (1040-1161)) (Homo sapiens, UniProt Q09472); test: EP300 Alphascreen binding assay
T1 construct: Recombinant human EP300 bromodomain (EP300-BD (1040-1161)); made in house; host or cells: E. coli BL21-CodonPlus (DE3), modified pET vector
T1 sequence (Q09472 1040-1161): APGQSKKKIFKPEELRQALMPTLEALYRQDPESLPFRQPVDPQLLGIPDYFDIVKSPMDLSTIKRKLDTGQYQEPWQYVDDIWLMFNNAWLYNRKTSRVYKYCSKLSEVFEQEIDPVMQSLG
How it was run: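 Displacement of a biotinylated acetyl-K56 histone H3 peptide from the N-His bromodomain construct (1040-1161) measured by AlphaScreen proximity, beads at 7.5 μg/ml final, read 60 min after addition. Protein, peptide and compound first incubated 1 h at room temperature, pH 7.5 HEPES buffer; IC50 by four-parameter logistic fit.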

Structure (SMILES) | IC50
Cc1nn(CC(=O)N(C)C)cc1-n1cc(-c2ccc(C(=O)O)cc2OC(F)(F)F)c2cc(-c3c(C)noc3C)cnc21 [P-0366, 4-(1-(1-(2-(dimethylamino)-2-oxoethyl)-3-methyl-1H-pyrazol-4-yl)-5-(3,5-dimethylisoxazol-4-yl)-1H-pyrrolo[2,3-b]pyridin-3-yl)-3-(trifluoromethoxy)benzoic acid] | 0.1 to 1000 nM
Cc1cc(C(=O)O)cc(OCC(F)F)c1-c1cn(C2CCOCC2)c2ncc(-c3c(C)noc3C)cc12 [P-0367, 3-(2,2-difluoroethoxy)-4-(5-(3,5-dimethylisoxazol-4-yl)-1-(tetrahydro-2H-pyran-4-yl)-1H-pyrrolo[2,3-b]pyridin-3-yl)-5-methylbenzoic acid] | 0.1 to 1000 nM
COc1nc(C(=O)O)ccc1-c1cn(C2CCOCC2)c2ncc(-c3c(C)noc3C)cc12 [P-0368, 5-(5-(3,5-dimethylisoxazol-4-yl)-1-(tetrahydro-2H-pyran-4-yl)-1H-pyrrolo[2,3-b]pyridin-3-yl)-6-methoxypicolinic acid] | 0.1 to 1000 nM
Cc1noc(C)c1-c1cnc2c(c1)c(-c1c(F)cc(C(=O)O)cc1OC(C)C)cn2C(C1CC1)C1CC1 [P-0369, 4-(1-(dicyclopropylmethyl)-5-(3,5-dimethylisoxazol-4-yl)-1H-pyrrolo[2,3-b]pyridin-3-yl)-3-fluoro-5-isopropoxybenzoic acid] | 0.1 to 1000 nM
CCOc1cc(C(=O)O)cc(Cl)c1-c1cn(C(C2CC2)C2CC2)c2ncc(-c3c(C)noc3C)cc12 [P-0370, 3-chloro-4-(1-(dicyclopropylmethyl)-5-(3,5-dimethylisoxazol-4-yl)-1H-pyrrolo[2,3-b]pyridin-3-yl)-5-ethoxybenzoic acid] | 0.1 to 1000 nM
CCOc1cc(C(=O)O)cc(Cl)c1-c1cn(C2CCOCC2)c2ncc(-c3c(C)noc3C)cc12 [P-0371, 3-chloro-4-(5-(3,5-dimethylisoxazol-4-yl)-1-(tetrahydro-2H-pyran-4-yl)-1H-pyrrolo[2,3-b]pyridin-3-yl)-5-ethoxybenzoic acid] | 0.1 to 1000 nM
Cc1noc(C)c1-c1cnc2c(c1)c(-c1c(Cl)cc(C(=O)O)cc1OC(C)C)cn2C1CCOCC1 [P-0372, 3-chloro-4-(5-(3,5-dimethylisoxazol-4-yl)-1-(tetrahydro-2H-pyran-4-yl)-1H-pyrrolo[2,3-b]pyridin-3-yl)-5-isopropoxybenzoic acid] | 0.1 to 1000 nM
CCOc1cc(C(=O)O)nc(OCC)c1-c1cn(C2CCOCC2)c2ncc(-c3c(C)noc3C)cc12 [P-0373, 5-(5-(3,5-dimethylisoxazol-4-yl)-1-(tetrahydro-2H-pyran-4-yl)-1H-pyrrolo[2,3-b]pyridin-3-yl)-4,6-diethoxypicolinic acid] | 0.1 to 1000 nM
CCOc1cc(C(=O)O)c(F)c(OCC)c1-c1cn(C2CCOCC2)c2ncc(-c3c(C)noc3C)cc12 [P-0374, 4-(5-(3,5-dimethylisoxazol-4-yl)-1-(tetrahydro-2H-pyran-4-yl)-1H-pyrrolo[2,3-b]pyridin-3-yl)-3,5-diethoxy-2-fluorobenzoic acid] | 0.1 to 1000 nM
CCOc1cc(C(=O)O)c(F)cc1-c1cn(C2CCOCC2)c2ncc(-c3c(C)noc3C)cc12 [P-0375, 4-(5-(3,5-dimethylisoxazol-4-yl)-1-(tetrahydro-2H-pyran-4-yl)-1H-pyrrolo[2,3-b]pyridin-3-yl)-5-ethoxy-2-fluorobenzoic acid] | 0.1 to 1000 nM
CCOc1nc(C(=O)O)ccc1-c1cn(C2CCOCC2)c2ncc(-c3c(C)noc3C)cc12 [P-0376, 5-(5-(3,5-dimethylisoxazol-4-yl)-1-(tetrahydro-2H-pyran-4-yl)-1H-pyrrolo[2,3-b]pyridin-3-yl)-6-ethoxypicolinic acid] | 0.1 to 1000 nM
CCOc1cc(C(=O)O)c(F)cc1-c1cn(-c2ccccc2F)c2ncc(-c3c(C)noc3C)cc12 [P-0377, 4-(5-(3,5-dimethylisoxazol-4-yl)-1-(2-fluorophenyl)-1H-pyrrolo[2,3-b]pyridin-3-yl)-5-ethoxy-2-fluorobenzoic acid] | 0.1 to 1000 nM
Cc1noc(C)c1-c1cnc2c(c1)c(-c1ccc(C(=O)O)cc1OC(F)(F)F)cn2C1CCC1 [P-0378, 4-(1-cyclobutyl-5-(3,5-dimethylisoxazol-4-yl)-1H-pyrrolo[2,3-b]pyridin-3-yl)-3-(trifluoromethoxy)benzoic acid] | 0.1 to 1000 nM
Cc1noc(C)c1-c1cnc2c(c1)c(-c1ccc(C(=O)O)cc1OC1CC1)cn2C1CCOCC1 [P-0379, 3-cyclopropoxy-4-(5-(3,5-dimethylisoxazol-4-yl)-1-(tetrahydro-2H-pyran-4-yl)-1H-pyrrolo[2,3-b]pyridin-3-yl)benzoic acid] | 0.1 to 1000 nM
Cc1noc(C)c1-c1cnc2c(c1)c(-c1c(Cl)cc(C(=O)O)cc1OC(F)(F)F)cn2C(C1CCC1)C1CCC1 [P-0380, 3-chloro-4-(1-(dicyclobutylmethyl)-5-(3,5-dimethylisoxazol-4-yl)-1H-pyrrolo[2,3-b]pyridin-3-yl)-5-(trifluoromethoxy)benzoic acid] | 0.1 to 1000 nM
Cc1noc(C)c1-c1cnc2c(c1)c(-c1c(Cl)cc(C(=O)O)cc1OC1CC1)cn2C1CCOCC1 [P-0381, 3-chloro-5-cyclopropoxy-4-(5-(3,5-dimethylisoxazol-4-yl)-1-(tetrahydro-2H-pyran-4-yl)-1H-pyrrolo[2,3-b]pyridin-3-yl)benzoic acid] | 0.1 to 1000 nM
Cc1noc(C)c1-c1cnc2c(c1)c(-c1ccc(C(=O)O)cc1OC(F)(F)F)cn2C1CCCC1 [P-0382, 4-(1-cyclopentyl-5-(3,5-dimethylisoxazol-4-yl)-1H-pyrrolo[2,3-b]pyridin-3-yl)-3-(trifluoromethoxy)benzoic acid] | 0.1 to 1000 nM
Cc1noc(C)c1-c1cnc2c(c1)c(-c1ccc(C(=O)O)cc1OC(F)(F)F)cn2C1(C)CCOC1 (stereo not shown) [P-0383, 4-(5-(3,5-dimethylisoxazol-4-yl)-1-(3-methyltetrahydrofuran-3-yl)-1H-pyrrolo[2,3-b]pyridin-3-yl)-3-(trifluoromethoxy)benzoic acid] | 0.1 to 1000 nM
Cc1noc(C)c1-c1cnc2c(c1)c(-c1ccc(C(=O)O)cc1OC(F)(F)F)cn2-c1cnc(C2CC2)nc1 [P-0384, 4-(1-(2-cyclopropylpyrimidin-5-yl)-5-(3,5-dimethylisoxazol-4-yl)-1H-pyrrolo[2,3-b]pyridin-3-yl)-3-(trifluoromethoxy)benzoic acid] | 0.1 to 1000 nM
Cc1noc(C)c1-c1cnc2c(c1)c(-c1ccc(C(=O)O)cc1OC(F)(F)F)cn2C1(C)CCOCC1 [P-0385, 4-(5-(3,5-dimethylisoxazol-4-yl)-1-(4-methyltetrahydro-2H-pyran-4-yl)-1H-pyrrolo[2,3-b]pyridin-3-yl)-3-(trifluoromethoxy)benzoic acid] | 0.1 to 1000 nM
Cc1noc(C)c1-c1cnc2c(c1)c(-c1c(Cl)cc(C(=O)O)cc1OC(F)(F)F)cn2-c1cnc(C2CC2)nc1 [P-0386, 3-chloro-4-(1-(2-cyclopropylpyrimidin-5-yl)-5-(3,5-dimethylisoxazol-4-yl)-1H-pyrrolo[2,3-b]pyridin-3-yl)-5-(trifluoromethoxy)benzoic acid] | 0.1 to 1000 nM
Cc1noc(C)c1-c1cnc2c(c1)c(-c1ccc(C(=O)O)cc1OCC(F)F)cn2-c1cnc(C2CC2)nc1 [P-0387, 4-(1-(2-cyclopropylpyrimidin-5-yl)-5-(3,5-dimethylisoxazol-4-yl)-1H-pyrrolo[2,3-b]pyridin-3-yl)-3-(2,2-difluoroethoxy)benzoic acid] | 0.1 to 1000 nM
